Assays:
STHdh^Q111/111 cells = experiment: Toxicity assay: rescue from tunicamycin (ER stress)-induced apoptosis, FACS with propidium iodide (sub-G0/G1); type: cell-based, murine
Procedure: (§1) STHdh^Q111/111 cells (used before[13]) or PERK+/+ or PERK−/− MEFs (kindly provided by David Ron, Univ. Cambridge) were incubated with Tun (10 μg/ml) for 48 h, which results in ER stress-induced cell death. Cells under the same conditions were incubated for the same times, together with Tun, with increasing concentrations of the different PERK modulators (0–120 μM) and the percent of apoptotic cells was measured by FACS cell cycle progression using propidium iodide (PI), considering the fraction beneath G0/G1. The relative apoptosis rate was calculated to be able to compare between compounds and experiments, where for each concentration curve the percent of apoptotic cells was considered 100 at concentration 0 of the PERK modulator, with only Tun. The graphs show the average relative apoptosis rate of at least 3 independent experiments for each compound.
(§2) Cells were washed with PBS and fixed with cold methanol. Before FACS analysis cells were washed with PBS, followed by addition of propidium iodide (PI) solution (10 μg/ml) and analysis by flow cytometry. Cells in sub-G0/G1 were counted as apoptotic/ dead.

WT MEF cells = experiment: Rescue from tunicamycin-induced apoptosis in WT MEFs; type: cell-based; settings: Mus musculus, MEF; WT MEFs treated with Tun; read-out: IC50 for inhibition of apoptosis
Procedure: as §1, §2

PERK−/− MEF cells = experiment: Rescue from tunicamycin-induced apoptosis in PERK−/− MEFs; type: cell-based; settings: Tun
Procedure: as §1, §2

PERK-P = experiment: PERK phosphorylation shift by immunoblot in MEF cells; type: cell-based; settings: 3 hours, Thap 2 μg/ml
CHOP mRNA = CHOP mRNA by qPCR in STHdh^Q7/7 and STHdh^Q111/111 cells; type: cell-based, murine; settings: both cell types, qPCR vs GAPDH
Procedure: (§3) Total cell RNA was extracted with TRIzol reagent (Invitrogen) according to the manufacturer's instructions. Reverse transcription (RT) was performed with QuantaBio qScript cDNA synthesis kit. Real-time qPCR was carried out using a CFX Connect Real-Time PCR Detection System (BioRad) and the amplifications were done using the SYBR Green PCR Master Mix (pcrbio). Reactions were run in triplicates in three independent experiments. Housekeeping gene GAPDH was used as an internal control to normalize the variability of expression levels.

GADD34 mRNA = GADD34 mRNA by qPCR in STHdh^Q7/7 and STHdh^Q111/111 cells; type: cell-based, murine; settings: both cell types, qPCR vs GAPDH
Procedure: as §3

HMOX1 mRNA = HMOX1 mRNA (downstream target of NRF2-P) by qPCR; type: cell-based, murine; settings: STHdh^Q7/7 and STHdh^Q111/111 cells
Procedure: as §3
Suppl. Fig. S5. NRF2 activation but not involvement in cell protection by MK-28. A)
Scheme of NRF2 activation by PERK. B) qPCR of HMOX1, a downstream target of NR F2.
Medians +- interquartile range of 3 independent experiments . P values of STHdhQ7/7 MK 5µM […]
presence of Tun and the indicated concentrations of MK-28, plus increasing concentrations of the NRF2 inhibitor ML385. Average of 3 independent experiments +-SD. D) Apoptosis of STHdhQ111/111 cells treated only with increasing concentrations of ML385. Average of 3 independent experiments +-SD.
(1 picture or pasted object on this page, not shown here)

EIF2AK2 (PKR) = EIF2AK2 (PKR) (Homo sapiens, UniProt P19525); experiment: In vitro HotSpot kinase assay on PKR; type: biochemical
Procedure: In vitro kinase assays with purified components and full kinase panel analysis was done at Reaction Biology Corp. (Malvern, PA, USA) using the HotSpot Kinase Assay. Reactions were performed for 20 min at room temp. using ^33P-ATP (Specific activity 10 μCi/μl) with 1 μM total ATP, 20 μM substrate and kinases in the nanomolar range in 20 mM Hepes (pH 7.5), 10 mM MgCl2, 1 mM EGTA, 0.02% Brij35, 0.02 mg/ml BSA, 0.1 mM Na3VO4, 2 mM DTT, 1% DMSO and other required factors depending on the assayed kinase.

R6/2 HD mouse model [1] = experiment: Rotarod test; type: in vivo, mice; settings: 1 mg/kg subcutaneous 28 days
Procedure: Motor activity was assessed by the rotarod test (San Diego Instruments, CA, USA) (0–25 RPM). Relative slow acceleration was used to discriminate small differences between groups particularly at advanced stages of the disease. All mice were trained together before any experimental procedure was performed to set a common baseline. They were required to stay at least 2 minutes without falling in order to participate in the study. R6/2 mice and control littermates were tested every week after pump transplantation. Each test consisted of 3 consecutive measurements of 5 minutes with inter-trial recess of 5 minutes. The latency to fall was recorded and the best performance of the three trials was considered for the analysis.

R6/2 HD mouse model [2] = experiment: Combined phenotype score (hind limb clasping, ledge, gait, kyphosis); type: in vivo, mice; settings: R6/2 TG, 1 mg/kg subcutaneous 28 days
Procedure: […]. Measures include hind limb clasping, ledge test, gait and kyphosis. See detailed information in Supplementary methods.
Group # Animals # Treatment Volume bleeding and
Determination of MK-28 levels in the plasma and brain were performed by LC/MS/MS using
generic methods in the bioanalytical lab of WuXi AppTec Co., Ltd. (Shanghai, China). The
MK-28 concentrations were determined in the plasma and whole perfused brain tissues of the
animals following a single IP injection of 10 mg/kg.
Combined phenotype: A method assessing a combination of different disease -phenotypes
was used to evaluate disease progression. Phenotypic evaluation includes hind-limb
clasping, ledge test, gait and kyphosis. Limb clasping: hind-limb clasping behavior was
evaluated and different scores were given based on their performance on a scale from 0 to 3: 0
= normal; 1 = clasps hind-limb s within 30s of being suspended in the air; 2 = cla sps hind-limb s
within 5s, recovering when released after 30s; 3 = clasps hind-limbs within 5s and has difficulty
recovering when released after 30s. Ledge test: The ledge test evaluates motor coordination by
placing mice on the ledge of the cage. Typically, mice will walk along the ledge and attempt
to descend back into the cage. Walking without losing balance is considered normal and
assigned a score of 0. A score of 1 is given if the mouse misse s its footing while walking. If […]

Sequence of EIF2AK2 (PKR) (P19525 whole entry): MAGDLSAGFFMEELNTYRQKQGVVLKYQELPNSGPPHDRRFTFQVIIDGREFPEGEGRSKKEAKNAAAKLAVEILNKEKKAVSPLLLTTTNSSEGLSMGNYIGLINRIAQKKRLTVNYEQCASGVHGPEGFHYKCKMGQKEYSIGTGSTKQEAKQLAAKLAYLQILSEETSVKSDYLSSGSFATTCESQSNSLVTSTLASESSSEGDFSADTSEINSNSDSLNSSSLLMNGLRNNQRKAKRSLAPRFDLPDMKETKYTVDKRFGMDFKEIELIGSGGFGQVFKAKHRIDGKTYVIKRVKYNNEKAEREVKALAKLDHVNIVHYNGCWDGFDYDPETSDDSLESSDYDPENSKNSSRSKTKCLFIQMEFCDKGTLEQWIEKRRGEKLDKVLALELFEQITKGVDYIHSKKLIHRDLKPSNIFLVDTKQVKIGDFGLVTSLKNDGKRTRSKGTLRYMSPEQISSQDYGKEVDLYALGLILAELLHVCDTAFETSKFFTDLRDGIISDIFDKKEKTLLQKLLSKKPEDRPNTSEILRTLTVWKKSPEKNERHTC

CN(/N=C\c1ccc(O)c(O)c1)c1nc(-c2ccccc2)cc(-c2ccccc2)n1 [MK-28]
rescue from ER stress-induced apoptosis (STHdh^Q111/111 cells; 0–100 μM, 48 h Tun exposure (Fig. 1C)): able to rescue the cells from apoptosis | reduction of apoptosis (STHdh^Q111/111 cells; 5 μM, 48 h Tun exposure): 20% | reduction of apoptosis (STHdh^Q111/111 cells; 10 μM, Tun (Fig. 4C)): 40% | reduction of apoptosis (STHdh^Q111/111 cells; 100 μM, 48 h Tun exposure): 5 fold | IC50 ratio MK-28 vs CCT020312 in rescuing mHtt-expressing striatal neurons from apoptosis (STHdh^Q111/111 cells; Fig. 4C): ~ 3 fold | IC50 (STHdh^Q111/111 cells; Mus musculus, STHdhQ111, STHdh^Q111/111 cells treated with Tun, read-out: IC50 for inhibition of apoptosis): 6.8 µM | concentration that showed identical levels of apoptosis in STHdh^Q111/111 and STHdh^Q7/7 cells (STHdh^Q111/111 cells; Tun (Fig. 1D)): 50 µM | IC50 (WT MEF cells): 1.7 µM | protection from ER stress-induced cell death (PERK−/− MEF cells): failed to protect | PERK migration shift (PERK-P) (PERK-P): shift of part of the PERK population to a slower migration | increase of CHOP mRNA levels (CHOP mRNA): up to 10 fold | increase of GADD34 mRNA levels (GADD34 mRNA): ≤ 5 fold | HMOX1 mRNA levels (HMOX1 mRNA): upregulation | effect on EIF2AK2 (PKR) activity (EIF2AK2 (PKR)): little or no effect | motor performance (rotarod) of TG mice vs untreated TG (R6/2 HD mouse model [1]; R6/2 TG, week 4): significant improvements in motor performance | motor performance (rotarod) of WT animals (R6/2 HD mouse model [1]; WT mice): no compromised motor performance | composite phenotype score (R6/2 HD mouse model [2]; week 6): 3.14 ± 1.41 | composite phenotype score (R6/2 HD mouse model [2]; week 8): 4.4 ± 0.55
